Results taken from US11234982B2, “Methods for treating ocular surface pain” (NOVARTIS AG, priority 2019, dated 2022).

Tests used:
healthy volunteers = assay: Hand immersion test at 49° C. during MAD part; type: in vivo, human; details: water at 49° C.
Description: Safety assessments: Safety assessments consisted of collecting all adverse events (AEs), serious adverse events (SAEs), including systemic and ocular adverse events, along with their severity and relationship to study drug. Systemic safety assessments included regular monitoring of hematology, blood chemistry and urinalysis performed at study center and regular assessments of physical examination, vital signs (systolic and diastolic blood pressure, pulse rate, and body temperature), ECG, pregnancy and assessments of fertility and hand immersion test at 49° C. during MAD part. Ocular safety assessments included early treatment diabetic retinopathy study (ETDRS) visual acuity, intraocular pressure, slit-lamp biomicroscopy, corneal staining and dilated fundus exam.
For the hand immersion test, all subjects in the treatment cohorts withdrew their hand from water at 49° C. at a time interval between 0 to ≤50 secs.

[1] = First in human study plasma pharmacokinetics; type: in vivo
Description: This example describes a first-in-human study of compound I conducted in healthy volunteers. A total of 54 subjects were administered to study medication. Part 1 of the first in human study administered single ascending doses of 0.15%, 1.5%, 2.5% w/v (1 drop) of compound I in an eye drop.
Part 2 tested multiple ascending doses (MAD) of compound I, administering (i) 1 drop of 0.15%, 1.5%, 2.5%, 4 times daily (every 6 hours) for 7 days or (ii) 1 drop of 2.5%, 8 times daily (every 3 hours) for 7 days (supra-therapeutic dose) as eye drops.
Accumulation of compound I at steady-state was minor (˜1.7-fold) following administration of 0.15%, 1.5% or 2.5% suspension 4 times daily and also minor (˜1.3-fold) following 2.5% 8 times daily for 7 days.

[2] = test system: patients undergoing photorefractive keratectomy (PRK) surgery; assay: PRK study: oral rescue medication (ORM) use; type: in vivo, human; details: for Number of patients who did not use oral rescue medication: 2.5%; for Number of patients who did not use oral rescue medication / Amount of oral rescue medication (Number of pills), Mean (SD) / Amount of oral rescue medication (Number of pills), Range / Amount of oral rescue medication (mg/kg of body weight), Range / Amount of oral rescue medication (mg/kg of body weight), Mean (SD): N = 40; for Amount of oral rescue medication (mg/kg of body weight), Mean (SD): tablet counted as 330 mg
Description: The study was a proof of concept, double-masked, randomized, vehicle-controlled study of compound I administered as eye drops in addition to standard of care treatment in patients after PRK surgery. PRK surgery was performed as an outpatient procedure under topical anesthesia with removal of the corneal epithelium to expose the stroma for the laser ablation. Compound I dosing was as single eye drop of 2.5% (25 mg/ml, 0.925 mg/drop), administered four times daily (every six hours) in one eye from immediate post-op (time 0) to last dose at 72 hours.
Rescue medication consisted of oral analgesic (acetaminophen 300 mg+codeine 30 mg) as needed up to a total of 10 tabs/day or 1-2 tabs every 4 hours.
Rescue oral analgesics: It is not ethical to refuse pain control medication to patients postoperatively as part of a clinical trial. […] Because the use of oral rescue medication may be a potential confounder of the pain VAS evaluation, three approaches were used when analyzing pain VAS scores to account for the influence of pain meds (assuming 4 hours of rescue medication effect): (1) any recorded VAS score within 4 hours after use of rescue medication was considered missing; (2) all the recorded VAS scores was used; and (3) any recorded VAS scores within 4 hours after rescue medication use was imputed by the record taken prior to the rescue medication.

[3] = PRK study: residual compound I in bandage contact lens (BCL); type: in vivo, human
Description: Compound I was quantified in plasma using a validated LC-MS/MS method; the lower limit of quantification (LLOQ) was 0.05 ng/mL. Concentrations were expressed in ng per mL units. When feasible, bandage contact lenses (BCL) exposed to study drug were collected and analyzed for residual drug exposure after treatment (LLOQ: 5.00 ng/mL in 0.55 mL of extraction fluid, or 2.75 ng/BCL). Concentrations below the LLOQ were reported as “zero” and missing data were labeled as such.
Bandage Contact Lens (BCL) was collected from 40 patients on Day 4 of the dose administration and analyzed for compound I. Values from the three IMP non-compliant patients were excluded from BCL summary statistics, leaving 37 values evaluable, including one value from a patient without available plasma PK. The mean concentration of compound I (CV %) in 0.55 mL extraction fluid was 8500 ng/mL (73.1%), with a wide range of 284 to 22600 ng/mL. These concentrations translate to an estimated mean of 4680 ng/lens (0.55 mL×8500 ng/mL), and a range of 156 to 12400 ng/lens. The amount in BCL was very small in relation to the 0.925 mg dose of compound I administered: mean 0.51%, and range of 0.017% to 1.3% of dose.

CC(C)c1nc2cc(O)ccc2c(=O)n1-c1ccc(C#N)cc1 [Compound I, 4-(7-hydroxy-2-isopropyl-4-oxo-4H-quinazolin-3-yl)-benzonitrile]
Change in hand immersion time, compound I vs vehicle (healthy volunteers; MAD part): no meaningful change in immersion time | Temperature sensitivity of the subjects (healthy volunteers; MAD part): does not alter temperature sensitivity | Longest hand immersion time of any subject (healthy volunteers; all subjects in the treatment cohorts): ≤ 22 s | Accumulation at steady-state ([1]; 0.15%, 1.5% or 2.5% suspension 4 times daily): ~1.7 fold | Accumulation at steady-state ([1]; 2.5%, 8 times daily for 7 days): ~1.3 fold | Increase in systemic exposure with dose ([1]; dose from 0.15% to 2.5%): less than dose-proportional increase | Absorption into systemic circulation (plasma PK profile) ([1]; single and multiple topical ocular suspension doses 0.15%, 1.5%, 2.5%): rapid absorption | Amount of ORM (Number of pills), % Change (Compound I-Vehicle)/Vehicle ([2]; 0-6 hours post-operatively): −25% | Amount of ORM (mg/kg of body weight), % Change (Compound I-Vehicle)/Vehicle ([2]; 0-6 hours post-operatively): −25% | Number of patients who did not use oral rescue medication ([2]; 0-6 hours post-operatively): 23 (57.5%) n (%) | Amount of oral rescue medication (Number of pills), Mean (SD) ([2]; 0-6 hours post-operatively): 0.75 (1.032) Number of pills | Amount of oral rescue medication (Number of pills), Range ([2]; 0-6 hours post-operatively): 0.0-4.0 Number of pills | Amount of oral rescue medication (mg/kg of body weight), Range ([2]; 0-6 hours post-operatively): 0.0-19.2 mg/kg of body weight | Amount of oral rescue medication (mg/kg of body weight), Mean (SD) ([2]; 0-6 hours post-operatively): 3.32 (4.684) mg/kg of body weight | Number of patients who did not use ORM, compound I-treated eye compared to Vehicle-treated eye ([2]; 0-6 hours, 0-12 hours and 0-24 hours post-operatively): higher | Amount of ORM (Number of pills), % Change (Compound I-Vehicle)/Vehicle ([2]; 0-12 hours post-operatively): −15% | Amount of ORM (mg/kg of body weight), % Change (Compound I-Vehicle)/Vehicle ([2]; 0-12 hours post-operatively): −17% | Number of patients who did not use oral rescue medication ([2]; 0-12 hours post-operatively): 19 (47.5%) n (%) | Amount of oral rescue medication (Number of pills), Mean (SD) ([2]; 0-12 hours post-operatively): 1.40 (1.780) Number of pills | Amount of oral rescue medication (Number of pills), Range ([2]; 0-12 hours post-operatively): 0.0-6.0 Number of pills | Amount of oral rescue medication (mg/kg of body weight), Range ([2]; 0-12 hours post-operatively): 0.0-28.7 mg/kg of body weight | Amount of oral rescue medication (mg/kg of body weight), Mean (SD) ([2]; 0-12 hours post-operatively): 6.10 (8.062) mg/kg of body weight | Amount of ORM (Number of pills), % Change (Compound I-Vehicle)/Vehicle ([2]; 0-24 hours post-operatively): −16% | Amount of ORM (mg/kg of body weight), % Change (Compound I-Vehicle)/Vehicle ([2]; 0-24 hours post-operatively): −18% | Number of patients who did not use oral rescue medication ([2]; 0-24 hours post-operatively): 16 (40.0%) n (%) | Amount of oral rescue medication (Number of pills), Mean (SD) ([2]; 0-24 hours post-operatively): 2.35 (2.751) Number of pills | Amount of oral rescue medication (Number of pills), Range ([2]; 0-24 hours post-operatively): 0.0-10.0 Number of pills | Amount of oral rescue medication (mg/kg of body weight), Range ([2]; 0-24 hours post-operatively): 0.0-47.9 mg/kg of body weight | Amount of oral rescue medication (mg/kg of body weight), Mean (SD) ([2]; 0-24 hours post-operatively): 10.17 (12.335) mg/kg of body weight | Number of patients who did not use oral rescue medication ([2]; 0-2 days post-operatively): 11 (27.5%) n (%) | Amount of ORM (Number of pills), % Change (Compound I-Vehicle)/Vehicle ([2]; 0-48 hours post-operatively): −13% | Amount of ORM (mg/kg of body weight), % Change (Compound I-Vehicle)/Vehicle ([2]; 0-48 hours post-operatively): −14% | Amount of oral rescue medication (Number of pills), Mean (SD) ([2]; 0-48 hours post-operatively): 4.05 (4.466) Number of pills | Amount of oral rescue medication (Number of pills), Range ([2]; 0-48 hours post-operatively): 0.0-16.0 Number of pills | Amount of oral rescue medication (mg/kg of body weight), Range ([2]; 0-48 hours post-operatively): 0.0-76.6 mg/kg of body weight | Amount of oral rescue medication (mg/kg of body weight), Mean (SD) ([2]; 0-48 hours post-operatively): 17.59 (19.850) mg/kg of body weight | Number of patients who did not use oral rescue medication ([2]; 0-3 days post-operatively): 11 (27.5%) n (%) | Amount of ORM (Number of pills), % Change (Compound I-Vehicle)/Vehicle ([2]; 0-72 hours post-operatively): −14% | Amount of ORM (mg/kg of body weight), % Change (Compound I-Vehicle)/Vehicle ([2]; 0-72 hours post-operatively): −15% | Amount of oral rescue medication (Number of pills), Mean (SD) ([2]; 0-72 hours post-operatively): 4.33 (4.896) Number of pills | Amount of oral rescue medication (Number of pills), Range ([2]; 0-72 hours post-operatively): 0.0-21.0 Number of pills | Amount of oral rescue medication (mg/kg of body weight), Range ([2]; 0-72 hours post-operatively): 0.0-87.4 mg/kg of body weight | Amount of oral rescue medication (mg/kg of body weight), Mean (SD) ([2]; 0-72 hours post-operatively): 18.70 (21.509) mg/kg of body weight | Amount of ORM (mg/kg of body weight) during compound I vs. Vehicle treatment ([2]; every time interval): less | ORM taken during compound I vs. Vehicle treatment (number of pills) ([2]; every time interval during the study): less ORM taken | Range of concentration of compound I in BCL extraction fluid ([3]; 0.55 mL extraction fluid, Day 4): 284 to 22600 ng/mL | Mean concentration of compound I in BCL extraction fluid ([3]; 0.55 mL extraction fluid, Day 4, 37 values): 8500 ng/mL | Estimated mean amount of compound I per lens ([3]; 0.55 mL×8500 ng/mL): 4680 ng/lens | Amount in BCL in relation to the 0.925 mg dose, mean ([3]; Day 4): 0.51 % of dose | Amount in BCL in relation to the 0.925 mg dose, range ([3]; Day 4): 0.017 % of dose | Range of amount of compound I per lens ([3]; Day 4): 156 to 12400 ng/lens
